According to patent US8664271B2, “Stabilized leukotriene B4 (LTB4) agent pharmaceutical formulation” (LTB4 Sweden AB, priority 2004, dated 2014):

How the values were obtained:
Assay type in all cases: physicochemical
[1] = Stability of aqueous LTB4 Na salt solution at pH 7.4 with or without EDTA (HPLC impurities); conditions: aqueous solution 5 mg/ml
Experimental: LTB4 (acid form) was obtained from Cascade Biochem (U.K.) in solution in ethanol/water, 95/5. The purity level of this starting material was about 98.5% (+0.3%) as assessed by reverse phase HPLC. The ethanolic LTB4 solution was neutralized with an equivalent of sodium hydroxide to obtain LTB4 sodium (Na) salt. The ethanolic solution of LTB4 Na salt was evaporated to dryness under reduced pressure using a rotoevaporator and a water bath (30° C.), until an oily residue is obtained. The residue was redisolved in Dulbeccos' phosphate buffered saline (DPBS) at pH 7.4 containing or not, 0.01% ethylenediaminetetraacetic acid (EDTA) to obtain a final concentration of 5 mg LTB4/ml. Solutions were dispensed in 2 ml type I borosilicate glass vials which were then sealed under argon using Teflon-lined rubber stoppers and aluminium caps. The samples were stored in the dark at 25±5° C. until analysis at the indicated time points. Analysis of LTB4 solutions was carried out by reverse phase HPLC using a C18, 5μ particle, 4.7X250 mm column (Nucleosil) and methanol/acetronitrile gradient elution; detection of LTB4 and impurities was performed on line using an HPLC UV spectrophotometer at 270 nm.

[2] = Effect of pH (phosphate buffer) on stability of aqueous LTB4 Na salt solution at 17.5 μg/ml
Experimental: Aqueous isotonic LTB4 Na salt solutions at the concentration of 17.5 μg/ml were obtained by dilution in phosphate buffered saline (3 mM sodium phosphate buffer, pH 7.5, 8.5, 9.5 and 10.5) containing 0.01% EDTA of an LTB4 Na salt solution at 25 mg/ml (Example 2). Solutions of LTB4 Na salt at 17.5 μg/ml of the 4 different pH were dispensed in 2 ml vials for storage under air, in the dark at 4±4° C. or 20±5° C. for 15 months prior to reverse phase HPLC analysis of LTB4 and impurities, as described in Example 1.

[3] = Forced degradation (40° C.) of aqueous LTB4 Na salt solutions at different concentrations; conditions: aqueous isotonic pH 7.5, 0.01% EDTA
Experimental: A solution of LTB4 (acid form) at the concentration of 12 mg/ml in ethanol/water, 95/5 (from Cascade Biochem, U.K.), was neutralized with an equivalent of sodium hydroxide to generate the Na salt. […] The ethanolic solution of LTB4 Na salt was evaporated (see Example 1) until an oily residue is obtained. The residue was then redissolved in a phosphate buffered sodium chloride solution (saline) (30 mM sodium phosphate, pH 7.5) containing 0.01% EDTA in order to obtain an isotonic solution of LTB4 Na salt at 25 mg/ml. LTB4 Na salt solution at 0.1 mg/ml was obtained by dilution of the 25 mg/ml solution with an isotonic 30 mM sodium phosphate buffered saline, pH 7.5 containing 0.01% EDTA. Aliquots of the solutions were dispensed in 2 ml type I glass vials as described in Example 1, and stored under air, in the dark, at 40±5° C. LTB4 and impurities were analyzed at the indicated times by reverse phase HPLC using UV detection at 270 nm.

[4] = Effect of glycine buffer strength and pH on stability of aqueous LTB4 Na salt solutions; conditions: 5 months at 40° C.; for level of impurities: 35 μg/ml
Experimental: Aqueous isotonic LTB4 Na salt solutions at the concentration of 35 and 350 μg/ml in phosphate buffered saline ([…]) containing 0.01% EDTA and various concentrations of glycine (from 0.01 mM to 10 mM) were obtained by dilution of a 25 mg/ml solution of LTB4 Na salt (Example 2). Solutions of LTB4 Na salt at 35 and 350 μg/ml at the 4 different glycine concentrations were dispensed in 2 ml vials for storage under air in the dark at 40±5° C. for 5 months prior to reverse phase HPLC analysis of LTB4 and impurities as described in Example 1.

[5] = Effect of pH (phosphate/glycine buffer) on stability of aqueous LTB4 Na salt solution at 1.75 mg/ml
Experimental: Aqueous isotonic LTB4 Na salt solutions at the concentration of 1.75 mg/ml in phosphate/glycine buffered saline (3 mM sodium phosphate and 10 mM glycine buffer, pH 7.5, 8.5, 9.5 and 10.5) containing 0.01% EDTA were obtained by dilution of a 25 mg/ml solution of LTB4 Na salt (see Example 2) with the appropriate phosphate/glycine buffered saline containing 0.01% EDTA. Solutions were dispensed in 2 ml vials for storage under air, in the dark at 4±4° C. and 20±5° C. for 9 months prior to reverse phase HPLC analysis of LTB4 and impurities as described in Example 1.

[6] = Forced degradation of aqueous LTB4 sodium salt solutions at increasing sodium hydroxide concentrations; conditions: for impurity level: five weeks at 40° C.; for pH after five weeks of storage / final pH (after five weeks): 40° C.
Experimental: An ethanolic solution of LTB4 (acid form) obtained from Cascade Biochem (UK) was neutralized by the addition of 1 equivalent of sodium hydroxide to generate LTB4 sodium salt. Aliquots of the ethanolic solution of the sodium salt of LTB4 were dispensed into 2-ml vials (to obtain 2 mg of LTB4 per vial) and the solvent was evaporated to dryness under a stream of nitrogen. The residues in vials were dissolved with 0.9% sodium chloride (NaCl) (vial 1), 0.9% NaCl in 0.1 mN NaOH (vial 2), 0.9% NaCl in 1 mN NaOH (vial 3), 0.9% NaCl in 10 mN NaOH (vial 4), 0.3% NaCl in 0.1N NaOH (vial 5) and in 1N NaOH (vial 6). Aliquots of the solutions were taken for immediate analysis (to) and the remaining solutions of LTB4 sodium salt at 2 mg/ml were stored under air, in the dark at 40±5° C. for five weeks, prior to reverse phase HPLC analysis of LTB4 and impurities as described in example 1.

Structure (SMILES): CCCCC/C=C\C[C@@H](O)/C=C/C=C/C=C\[C@@H](O)CCCC(=O)[O-].[Na+] [LTB4 Na salt]
- impurity level ([1]; DPBS pH 7.4, 0.01% EDTA, 60 days of storage at 25° C.): 2.9%
- impurity level ([1]; DPBS pH 7.4, 0.01% EDTA, 90 days of storage at 25° C.): 8.6%
- degradation ([1]; DPBS pH 7.4, 0.01% EDTA, up to 14 days of storage at 25° C.): no increase of degradation
- level of impurities ([1]; DPBS pH 7.4, no EDTA, 7 days of storage at 25° C.): increased level of impurities
- impurity level ([1]; DPBS pH 7.4, no EDTA, 14 days of storage at 25° C.): 23.3 % of LTB4 peak area
- degradation of LTB4 ([2]; pH 7.5 to 10.5, 15 months of storage at 4° C.): very little degradation
- effect of increasing pH on stability ([2]; phosphate buffered saline pH 7.5 to 10.5, 0.01% EDTA, 15 months, more evident at 20° C.): strikingly increases the stability
- stability of 25 mg/ml solution compared with 0.1 mg/ml solution [3]: much less stable
- level of impurities ([4]; pH 7.5, 10 mM glycine, data not shown): 20%
- level of impurities ([4]; pH 9.5, 10 mM glycine): 6.5%
- impact of glycine buffer concentration on stability ([4]; glycine 0.01 mM to 10 mM, pH 9.5, 35 μg/ml): little impact
- effect of increasing pH on stability ([5]; 1.75 mg/ml, phosphate/glycine buffered saline pH 7.5 to 10.5, 0.01% EDTA, 9 months at 4° C. and 20° C.): strikingly increases the stability
- effect of increasing pH on solution stability ([5]; forced degradation, storage at 40° C., data not shown): dramatic improvement
- impurity level ([6]; vial 1: 2 mg/ml in 0.9% NaCl): 100%
- pH after five weeks of storage ([6]; vial 1: 0.9% NaCl): < 5
- impurity level ([6]; vial 2: 2 mg/ml in 0.9% NaCl in 0.1 mN NaOH): 100%
- pH after five weeks of storage ([6]; vial 2: 0.9% NaCl in 0.1 mN NaOH): < 5
- impurity level ([6]; vial 3: 2 mg/ml in 0.9% NaCl in 1 mN NaOH): 5.34 % of AUC 270 nm
- final pH (after five weeks) ([6]; vial 3: 0.9% NaCl in 1 mN NaOH): 8.02
- impurity level ([6]; vial 4: 2 mg/ml in 0.9% NaCl in 10 mN NaOH): 3.46 % of AUC 270 nm
- final pH (after five weeks) ([6]; vial 4: 0.9% NaCl in 10 mN NaOH): 9.83
- impurity level ([6]; vial 5: 2 mg/ml in 0.3% NaCl in 0.1N NaOH): 4.38 % of AUC 270 nm
- final pH (after five weeks) ([6]; vial 5: 0.3% NaCl in 0.1N NaOH): 12.50
- impurity level ([6]; vial 6: 2 mg/ml in 1N NaOH): 5.77 % of AUC 270 nm
- final pH (after five weeks) ([6]; vial 6: 1N NaOH): 13.03
